Laboratory results from US12660819B2, “Herbicidal derivatives” (SYNGENTA CROP PROTECTION AG, priority 2020, dated 2026).

Legend:
Format in all cases: in vivo
[1] = tested on: Amaranthus retoflexus (AMARE); assay: Pre-emergence Test (glasshouse, percentage damage to the plant); conditions: 1000 g/ha unless otherwise stated, five-point scale
Lolium perenne (LOLPE) [2] = assay: as above; conditions: 1000 g/ha unless otherwise stated, five-point scale
[3] = tested on: Ipomoea hederacea (IPOHE); assay: Post-emergence Test (glasshouse, percentage damage to the plant); conditions: post-emergence spray, 1000 g/ha unless otherwise stated, evaluated after 13 days
Summary of the method: (§1)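 Compound formulated in 50:50 acetone/water with 0.5% Tween 20 was diluted to an aqueous spray and applied at 1000 g/ha, unless otherwise stated, onto sown pots. Evaluation after 13 days gave percentage damage, banded into a 1–5 score.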

Solanum nigrum (SOLNI) [4] = assay: as above; conditions: post-emergence spray, 1000 g/ha unless otherwise stated, evaluated after 13 days
Summary of the method: (§2)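 Sown pots; spray 1000 g/ha (unless stated) in acetone/water 50:50 + 0.5% Tween 20; glasshouse 24/16 °C, 14 h light, 65% RH; watered twice daily; % damage read at 13 days, scored 1–5.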

[5] = tested on: Echinochloa crus-galli (ECHCG); assay: as above; conditions: post-emergence spray, 1000 g/ha unless otherwise stated, evaluated after 13 days
Summary of the method: as §2

Lolium perenne (LOLPE) [6] = assay: as above; conditions: post-emergence spray, 1000 g/ha unless otherwise stated, evaluated after 13 days
Summary of the method: as §2

Setaria faberi (SETFA) [7] = assay: as above; conditions: post-emergence spray, 1000 g/ha unless otherwise stated, evaluated after 13 days
Summary of the method: as §1

[8] = tested on: Amaranthus retoflexus (AMARE); assay: as above; conditions: post-emergence spray, 1000 g/ha unless otherwise stated, evaluated after 13 days
Summary of the method: as §2

[9] = tested on: Echinochloa crus-galli (ECHCG); assay: Pre-emergence Test (glasshouse, percentage damage to the plant); conditions: 1000 g/ha unless otherwise stated, five-point scale
[10] = tested on: Ipomoea hederacea (IPOHE); assay: as above; conditions: 1000 g/ha unless otherwise stated, five-point scale
Setaria faberi (SETFA) [11] = assay: as above; conditions: 1000 g/ha unless otherwise stated, five-point scale
Solanum nigrum (SOLNI) [12] = assay: as above; conditions: 1000 g/ha unless otherwise stated, five-point scale

Row | SMILES | percentage damage to the plant, AMARE [1] | percentage damage to the plant, LOLPE (Lolium perenne (LOLPE) [2]) | Post-emergence Test IPOHE, percentage damage to the plant (five-point scale) [3] | Post-emergence Test SOLNI, percentage damage to the plant (five-point scale) (Solanum nigrum (SOLNI) [4]) | Post-emergence Test ECHCG, percentage damage to the plant (five-point scale) [5] | Post-emergence Test LOLPE, percentage damage to the plant (five-point scale) (Lolium perenne (LOLPE) [6]) | Post-emergence Test SETFA, percentage damage to the plant (five-point scale) (Setaria faberi (SETFA) [7]) | Post-emergence Test AMARE, percentage damage to the plant (five-point scale) [8] | percentage damage to the plant, ECHCG [9] | percentage damage to the plant, IPOHE [10] | percentage damage to the plant, SETFA (Setaria faberi (SETFA) [11]) | percentage damage to the plant, SOLNI (Solanum nigrum (SOLNI) [12])
1 | CCn1c(C)c(-c2ccccc2)c(=O)c(C(=O)O)c1-c1ccc(Cl)c(Cl)c1 [Compound 24, 2-(3,4-dichlorophenyl)-1-ethyl-6-methyl-4-oxo-5-phenyl-pyridine-3-carboxylic acid] | 1 (1=0-20%) | 2 (2=21-40%) | 4 (4=61-80%) | 5 (5=81-100%) | 3 (3=41-60%) | 4 (4=61-80%) | 4 (4=61-80%) | 4 (4=61-80%) | 2 (2=21-40%) | 4 (4=61-80%) | 1 (1=0-20%) | 5 (5=81-100%)
2 | CCn1c(C)c(-c2ccccc2Cl)c(=O)c(C(=O)O)c1-c1ccc(Cl)c(Cl)c1 [Compound 13, 5-(2-chlorophenyl)-2-(3,4-dichlorophenyl)-1-ethyl-6-methyl-4-oxo-pyridine-3-carboxylic acid] | 4 (4=61-80%) | 2 (2=21-40%) | 4 (4=61-80%) | 3 (3=41-60%) | 4 (4=61-80%) | 4 (4=61-80%) | 4 (4=61-80%) | 4 (4=61-80%) | 5 (5=81-100%) | 4 (4=61-80%) | 5 (5=81-100%) | 4 (4=61-80%)
3 | CCn1c(C)c(-c2ccccc2C)c(=O)c(C(=O)O)c1-c1ccc(Cl)c(Cl)c1 [Compound 31, 2-(3,4-dichlorophenyl)-1-ethyl-6-methyl-5-(o-tolyl)-4-oxo-pyridine-3-carboxylic acid] | 1 (1=0-20%) | 1 (1=0-20%) | 2 (2=21-40%) | 4 (4=61-80%) | 1 (1=0-20%) | 2 (2=21-40%) | 3 (3=41-60%) | 3 (3=41-60%) | 1 (1=0-20%) | 1 (1=0-20%) | 4 (4=61-80%) | 4 (4=61-80%)
4 | CCn1c(C)c(-c2ccc(Cl)c(Cl)c2)c(=O)c(C(=O)O)c1-c1ccc(Cl)c(Cl)c1 [Compound 29, 2,5-bis(3,4-dichlorophenyl)-1-ethyl-6-methyl-4-oxo-pyridine-3-carboxylic acid] | 3 (3=41-60%) | 1 (1=0-20%) | 2 (2=21-40%) | 3 (3=41-60%) | 1 (1=0-20%) | 2 (2=21-40%) | 3 (3=41-60%) | 5 (5=81-100%) | 1 (1=0-20%) | 1 (1=0-20%) | 3 (3=41-60%) | 1 (1=0-20%)
5 | CCn1c(C)c(-c2ccc(Cl)cc2Cl)c(=O)c(C(=O)O)c1-c1ccc(Cl)c(Cl)c1 [Compound 15, 5-(2,4-dichlorophenyl)-2-(3,4-dichlorophenyl)-1-ethyl-6-methyl-4-oxo-pyridine-3-carboxylic acid] | 5 (5=81-100%) | 1 (1=0-20%) | 2 (2=21-40%) | 4 (4=61-80%) | 4 (4=61-80%) | 1 (1=0-20%) | 5 (5=81-100%) | 5 (5=81-100%) | 1 (1=0-20%) | 1 (1=0-20%) | 5 (5=81-100%) | 3 (3=41-60%)
6 | CCn1c(C)c(-c2ccncc2)c(=O)c(C(=O)O)c1-c1ccc(Cl)c(Cl)c1 [Compound 25, 2-(3,4-dichlorophenyl)-1-ethyl-6-methyl-4-oxo-5-pyridin-1-ium-4-yl-pyridine-3-carboxylic acid;2,2,2-trifluoroacetate] | 1 (1=0-20%) | 1 (1=0-20%) | 2 (2=21-40%) | 2 (2=21-40%) | 4 (4=61-80%) | 1 (1=0-20%) | 4 (4=61-80%) | 3 (3=41-60%) | 1 (1=0-20%) | 1 (1=0-20%) | 3 (3=41-60%) | 1 (1=0-20%)
7 | CCn1c(C)c(-c2cnn(C)c2)c(=O)c(C(=O)O)c1-c1ccc(Cl)c(Cl)c1 [Compound 1, 2-(3,4-dichlorophenyl)-1-ethyl-6-methyl-5-(1-methylpyrazol-4-yl)-4-oxo-pyridine-3-carboxylic acid] | 1 (1=0-20%) | 4 (4=61-80%) | 4 (4=61-80%) | 5 (5=81-100%) | 5 (5=81-100%) | 3 (3=41-60%) | 5 (5=81-100%) | 5 (5=81-100%) | 5 (5=81-100%) | 4 (4=61-80%) | 5 (5=81-100%) | 5 (5=81-100%)
8 | CCn1c(C)c(-c2ccsc2)c(=O)c(C(=O)O)c1-c1ccc(Cl)c(Cl)c1 [Compound 30, 2-(3,4-dichlorophenyl)-1-ethyl-6-methyl-4-oxo-5-(3-thienyl)pyridine-3-carboxylic acid] | 1 (1=0-20%) | 2 (2=21-40%) | 3 (3=41-60%) | 3 (3=41-60%) | 2 (2=21-40%) | 2 (2=21-40%) | 3 (3=41-60%) | 4 (4=61-80%) | 3 (3=41-60%) | 2 (2=21-40%) | 4 (4=61-80%) | 2 (2=21-40%)
9 | CCn1c(C)c(-c2ccc(Cl)c(F)c2)c(=O)c(C(=O)O)c1-c1ccc(Cl)c(Cl)c1 [Compound 9, 5-(4-chloro-3-fluoro-phenyl)-2-(3,4-dichlorophenyl)-1-ethyl-6-methyl-4-oxo-pyridine-3-carboxylic acid] | 5 (5=81-100%) | 1 (1=0-20%) | 3 (3=41-60%) | 3 (3=41-60%) | 5 (5=81-100%) | 1 (1=0-20%) | 5 (5=81-100%) | 5 (5=81-100%) | 5 (5=81-100%) | 1 (1=0-20%) | 4 (4=61-80%) | 3 (3=41-60%)
10 | Cc1c(-c2ccc(Cl)cc2)c(=O)c(C(=O)O)c(-c2ccc(Cl)c(Cl)c2)n1C [Compound 5, 5-(4-chlorophenyl)-2-(3,4-dichlorophenyl)-1,6-dimethyl-4-oxo-pyridine-3-carboxylic acid] | 4 (4=61-80%) | 4 (4=61-80%) | 3 (3=41-60%) | 2 (2=21-40%) | 5 (5=81-100%) | 1 (1=0-20%) | 5 (5=81-100%) | 3 (3=41-60%) | 4 (4=61-80%) | 4 (4=61-80%) | 4 (4=61-80%) | 4 (4=61-80%)
